Laboratory results from the supplement of paper PMC10307832.

Experiments:
Test in all cases: relative viability (nuclei count vs DMSO), 5 days (fraction); higher = more cells survive
[1] = compound: C/C(=N\NC(=S)N1CCC1)/C2=CC=CC=N2 + C[C@]1(O)C[C@@H](c2nc(-c3ccc4ccc(-c5ccccc5)nc4c3)c3c(N)nccn32)C1 [Linsitinib] (partner 1 µM)
In short: (§1)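 Lung cancer cell lines were seeded in 1536-well plates and dosed by pin tool the next day, with either a single drug or a fixed anchor-drug dose combined with five library-drug doses (not always all listed) spaced in √10 steps. Five days later, one step fixed the cells and stained their nuclei (final 0.05% Triton X-100, 1% formaldehyde, 1 ug/ml Hoechst), and nuclei were counted on 4× images. Relative viability is the nuclei count in treated wells divided by the count in vehicle wells, and each value is the median of duplicate plates.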

[2] = compound: C/C(=N\NC(=S)N1CCC1)/C2=CC=CC=N2 + O=C(CCCCCCC(=O)Nc1ccccc1)NO [Vorinostat] (partner 1 µM)
In short: as §1

[3] = compound: C/C(=N\NC(=S)N1CCC1)/C2=CC=CC=N2 + O=C(c1cc(Cc2n[nH]c(=O)c3ccccc23)ccc1F)N1CCN(C(=O)C2CC2)CC1 [Olaparib] (partner 8 µM)
In short: as §1

[4] = compound: C/C(=N\NC(=S)N1CCC1)/C2=CC=CC=N2 + Nc1nc2[nH]cc(CCc3ccc(C(=O)N[C@@H](CCC(=O)O)C(=O)O)cc3)c2c(=O)[nH]1 [Pemetrexed] (partner 0.2 µM)
In short: as §1

Row | Cell Line | relative viability ([1]; first compound 0.05 µM) | relative viability ([1]; first compound 0.1581 µM) | relative viability ([1]; first compound 0.5 µM) | relative viability ([1]; first compound 1.581 µM) | relative viability ([1]; first compound 5 µM) | relative viability ([2]; first compound 0.05 µM) | relative viability ([2]; first compound 0.1581 µM) | relative viability ([2]; first compound 0.5 µM) | relative viability ([2]; first compound 1.581 µM) | relative viability ([2]; first compound 5 µM) | relative viability ([3]; first compound 0.05 µM) | relative viability ([3]; first compound 0.1581 µM) | relative viability ([3]; first compound 0.5 µM) | relative viability ([3]; first compound 1.581 µM) | relative viability ([3]; first compound 5 µM) | relative viability ([4]; first compound 0.05 µM) | relative viability ([4]; first compound 0.1581 µM) | relative viability ([4]; first compound 0.5 µM) | relative viability ([4]; first compound 1.581 µM) | relative viability ([4]; first compound 5 µM)
1 | LXF-289 | 0.508 | 0.325 | 0.248 | 0.226 | 0.131 | 0.22 | 0.185 | 0.188 | 0.151 | 0.104 | 0.382 | 0.647 | 0.175 | 0.176 | 0.0913 | 0.254 | 0.203 | 0.199 | 0.17 | 0.104
2 | NCI-H23 | 0.134 | 0.196 | 0.13 | 0.124 | 0.151 | 0.15 | 0.11 | 0.124 | 0.0929 | 0.102 | 0.129 | 0.101 | 0.0966 | 0.0889 | 0.111 | 0.16 | 0.175 | 0.203 | 0.137 | 0.19
3 | NCI-H322M | 0.291 | 0.876 | 0.197 | 0.245 | 0.319 | 0.337 | 0.345 | 0.358 | 0.465 | 0.438 | 0.334 | 0.334 | 0.398 | 0.398 | 0.467 | 0.327 | 0.391 | 0.556 | 0.327 | 0.404
4 | NCI-H358 | 0.179 | 0.196 | 0.163 | 0.125 | 0.181 | 0.0785 | 0.0651 | 0.0611 | 0.0639 | 0.0677 | 0.0853 | 0.0833 | 0.0714 | 0.0722 | 0.067 | 0.114 | 0.107 | 0.109 | 0.0963 | 0.12
5 | NCI-H441 | 0.145 | 0.15 | 0.117 | 0.0833 | 0.108 | 0.16 | 0.19 | 0.153 | 0.111 | 0.127 | 0.167 | 0.136 | 0.125 | 0.113 | 0.138 | 0.16 | 0.162 | 0.129 | 0.154 | 0.118
6 | NCI-H460 | 0.0136 | 0.0148 | 0.0172 | 0.0108 | 0.005 | 0.0355 | 0.029 | 0.0302 | 0.03 | 0.0178 | 0.0648 | 0.0442 | 0.0577 | 0.0429 | 0.0274 | 0.0583 | 0.0469 | 0.0644 | 0.0399 | 0.014
7 | NCI-H520 | 0.164 | 0.145 | 0.123 | 0.116 | 0.169 | 0.177 | 0.156 | 0.163 | 0.182 | 0.159 | 0.122 | 0.131 | 0.125 | 0.106 | 0.143 | 0.128 | 0.16 | 0.145 | 0.122 | 0.146
8 | NCI-H596 | 0.912 | 0.344 | 0.251 | 0.208 | 0.257 | 0.27 | 0.255 | 0.253 | 0.241 | 0.23 | 0.616 | 0.391 | 0.347 | 0.31 | 0.292 | 0.373 | 0.302 | 0.339 | 0.243 | 0.292
9 | NCI-H647 | 0.148 | 0.103 | 0.159 | 0.0971 | 0.0901 | 0.115 | 0.0948 | 0.106 | 0.0935 | 0.102 | 0.0792 | 0.0588 | 0.0743 | 0.0667 | 0.0631 | 0.136 | 0.111 | 0.114 | 0.0953 | 0.0773
10 | NCI-H650 | 0.214 | 0.262 | 0.251 | 0.153 | 0.18 | 0.152 | 0.163 | 0.152 | 0.177 | 0.139 | 0.135 | 0.151 | 0.147 | 0.114 | 0.138 | 0.179 | 0.245 | 0.201 | 0.166 | 0.131
11 | NCI-H661 | 0.186 | 0.218 | 0.191 | 0.196 | 0.212 | 0.324 | 0.297 | 0.289 | 0.283 | 0.259 | 0.244 | 0.239 | 0.202 | 0.243 | 0.219 | 0.286 | 0.278 | 0.244 | 0.229 | 0.223
12 | NCI-H838 | 0.241 | 0.224 | 0.198 | 0.183 | 0.143 | 0.286 | 0.266 | 0.249 | 0.17 | 0.178 | 0.184 | 0.173 | 0.186 | 0.159 | 0.13 | 0.223 | 0.186 | 0.185 | 0.19 | 0.186
13 | NCI-H1355 | 0.259 | 0.632 | 0.193 | 0.182 | 0.181 | 0.165 | 0.174 | 0.148 | 0.171 | 0.144 | 0.22 | 0.179 | 0.171 | 0.175 | 0.142 | 0.195 | 0.18 | 0.177 | 0.189 | 0.152
14 | NCI-H1395 | 0.374 | 0.336 | 0.307 | 0.353 | 0.36 | 0.302 | 0.405 | 0.31 | 0.312 | 0.339 | 0.321 | 0.285 | 0.373 | 0.364 | 0.39 | 0.313 | 0.402 | 0.322 | 0.32 | 0.348
15 | NCI-H1437 | 0.114 | 0.122 | 0.103 | 0.0866 | 0.0787 | 0.32 | 0.334 | 0.251 | 0.218 | 0.188 | 0.226 | 0.213 | 0.235 | 0.143 | 0.119 | 0.174 | 0.169 | 0.193 | 0.171 | 0.126
16 | NCI-H1651 | 0.131 | 0.126 | 0.122 | 0.0894 | 0.0655 | 0.116 | 0.116 | 0.109 | 0.0595 | 0.0665 | 0.125 | 0.117 | 0.121 | 0.122 | 0.0747 | 0.137 | 0.111 | 0.0991 | 0.0716 | 0.0806
